{"source": "patent US20250090502A1", "about": "“METHODS OF TREATING, AMELIORATING, AND/OR PREVENTING BACTERIAL INFECTION, OR METHODS OF REDUCING ADVERSE EFFECTS CAUSED BY BACTERIA” (Drexel University, priority 2023, published 2025)", "key": {"[1]": {"tested_on": "Haemophilus influenzae", "test": "Susceptibility of planktonic and biofilm H. influenzae strains to kanamycin alone and in combination with HEJ14", "type": "cell-based", "description": "FIG. 3A: transformation frequency of wild type (Rd) Haemophilus influenzae versus ΔRelA Rd; FIG. 3B: transformation frequency of Rd versus ΔRelA/ΔSpot Rd; FIG. 3C: planktonic treatments: no treatment (left); kanamycin treatment (middle); HEJ14+kanamycin treatment (right). Left=WT Rd; middle=ΔRelA Rd and right=ΔRelA/ΔSpot Rd. FIG. 3D: biofilm treatments: no treatment (left); kanamycin treatment (middle); HEJ14+kanamycin treatment (right). Left=WT Rd; middle=ΔRelA Rd and right=ΔRelA/ΔSpot Rd.\nTo study the effects of HEJ14, including the risk of resistance mutations arising, the present study constructed single gene knockouts of RelA, SpoT, and MsfI (a gene that provides for survival in phagolysosomes) as well as a double RelA/SpoT knockout in the Gram-negative bacteria Haemophilus influenzae using an overlap PCR mutagenesis strategy.\nThe present study then evaluated the susceptibility of both planktonic (FIG. 3C) and biofilm cells (FIG. 3D) of WT, ΔRelA and the ΔRelA/ΔSpot H. influenzae strains to kanamycin (kan) alone and in combination with HEJ14. In all cases there was a 2-3 log increase in killing by the combo treatment confirming our initial premise that RelA inhibition would potentiate standard antibiotics."}, "[2]": {"tested_on": "P. aeruginosa", "test": "Pyocyanin toxin production by P. aeruginosa cultures", "type": "cell-based", "conditions": "P. aeruginosa culture, single agent", "description": "FIG. 4 illustrates certain aspects of the effect of HEJ14 on pyocyanin toxin production by the Gram-negative bacteria P. aeruginosa, in accordance with some embodiments. […] The bar chart illustrates the effect of HEJ14 on pyocyanin by P. aeruginosa at various HEJ14 concentrations.\nUnexpectedly, the present study discovered that some of the hit compounds, as single agents, inhibited pyocyanin toxin production (FIG. 4) in the Gram-negative pathogen P. aeruginosa at higher specific activities (nanomolar) than required for RelA inhibition. Thus, the present study pursued a bipartite strategy of developing the compounds to treat biofilms, and to “convert” pathogens to commensals."}, "[3]": {"tested_on": "P. aeruginosa", "test": "Wax worm model: larvae injected with supernatant of P. aeruginosa cultures grown with HEJ14", "type": "in vivo", "conditions": "larvae injected with supernatant of cultures treated with HEJ14 during growth vs untreated culture supernatants", "procedure": "(§1) FIG. 5A: HEJ14 reduced toxin production of P. aeruginosa. The label “DMSO 48 h” above the dish indicate that the larvae were injected with supernatant of P. aeruginosa culture grown with DMSO carrier only. […] Kaplan Meier Plot showing increased survival of wax worms receiving supernatant from HEJ14 treated P. aeruginosa culture. FIG. 5B: HEJ14 protected wax worm larvae from the lethality caused by P. aeruginosa infection. In FIG. 5B, larvae were injected with either live P. aeruginosa (10^5 CFU) and HEJ14, or the live bacteria and DMSO carrier only. Right dish: Larvae were injected with live P. aeruginosa (10^5 CFU) & 50 μM HEJ14. The Kaplan Meier Plot showing increased survival of wax worms receiving HEJ14 treated P. aeruginosa.\n(§2) Similarly, HEJ14 protected the larvae for 48 hours when live P. aeruginosa were injected simultaneously with a single bolus of HEJ14 (FIG. 5B)."}, "[4]": {"tested_on": "P. aeruginosa", "test": "Wax worm model: larvae injected with live P. aeruginosa and HEJ14", "type": "in vivo", "conditions": "48 hours post-injection; live P. aeruginosa (10^5 CFU) injected simultaneously with single bolus of 50 μM HEJ14", "procedure": "as §1, §2"}, "[5]": {"tested_on": "Staphylococcus aureus", "test": "S. aureus in vitro growth kinetics (OD600)", "type": "cell-based", "conditions": "stationary phase; HEJ14 125-500 μM, 24 hours", "procedure": "(§3) Cultures of a S. aureus expressing an agr-GFP reporter were incubated with vehicle (0 μM) or various concentrations of HEJ14 ([…], 250 μM, and 500 μM). The bacterial growth (OD600) and GFP signal intensity (RFU) were measured for a duration of 24 hours at 20-minute intervals. FIG. 6A: Bacterial growth (OD600).\nThe present study further discovered that the bacterial anti-virulence effects of HEJ14 works on the Gram-positive pathogens, as well. To determine if HEJ14 has an effect on the Gram-positive bacteria Staphylococcus aureus, the present study performed in vitro growth kinetics assays testing various HEJ14 concentrations and measuring OD600 over time."}, "[6]": {"tested_on": "agr", "test": "S. aureus agr-GFP reporter expression", "type": "cell-based, Staphylococcus aureus", "conditions": "stationary phase; HEJ14 125, 250, 500 μM", "procedure": "as §3\nFIG. 6B: agr expression as measured by GFP signal intensity (RFU) normalized to OD600.\nSince the stringent response in S. aureus induces PSMα production and agr activity is essential for psm expression, the present study used an S. aureus agr reporter strain to elucidate the effect of RelA inhibition on agr expression."}, "[7]": {"tested_on": "S. aureus", "test": "Hemolytic activity of S. aureus culture supernatants on sheep's blood agar", "type": "cell-based, Staphylococcus aureus", "conditions": "S. aureus cultures incubated with HEJ14 (125 μM) for 24 hrs vs vehicle", "procedure": "S. aureus broth cultures were incubated with vehicle or HEJ14 (125 μM) for 24 hrs. The supernatants were filter sterilized (0.2 μm) and 5 μL plated in serial dilutions on 5% sheep's blood agar, starting with V1 (vehicle treated plate) and R1 (HEJ14 treated plate)."}, "[8]": {"tested_on": "methicillin-resistant S. aureus (MRSA) (strain USA300 LAC::lux)", "test": "Mouse model of S. aureus intradermal infection (MRSA USA300 LAC::lux)", "type": "in vivo, mice", "conditions": "single dose of 125 μM or 250 μM HEJ14 at time of infection, day 3, vs vehicle, dose-dependent", "procedure": "The dorsal skin surfaces of anesthetized mice were shaved; a 100 μL volume of 3×10^7 CFU of methicillin-resistant S. aureus (MRSA) (strain USA300 LAC::lux) was injected intradermally with, from left to right, vehicle, 125 μM of HEJ14, or 250 μM of HEJ14. FIG. 8A: Digital photographs of dorsal lesions. FIG. 8B: Digital bioluminescent signals of S. aureus. FIG. 8C: images from FIG. 8A were analyzed using Image J to obtain total lesion areas. FIG. 8D Images from FIG. 8B were analyzed by Image J to determine bacterial burden based on photon count.\nTo investigate the efficacy of a RelA inhibitor against in vivo bacterial infections, the present study employed an established mouse model of S. aureus intradermal infection with the community-associated methicillin-resistant S. aureus infections (CA-MRSA) bioluminescent strain USA300 LAC::lux (Marchitto et al., Proc Natl Acad Sci USA 2019; 116:10917-26; Alphonse et al., Sci Transl Med 2021; 13.; Wang et al., Nat Med 2007; 13:1510-4.; Dong et al., Immunity 2022; 55:1645-62.e7)."}, "[9]": {"tested_on": "Escherichia coli C", "test": "E. coli C aggregation under stress conditions", "type": "cell-based", "conditions": "high salt, low temperature and amino acid starvation", "description": "Bottom panels: Micrographs of the aggregates (or the lack thereof in the case of HEJ14 treated sample).\nE. coli C, when under certain stress conditions, aggregates together and forms highly robust biofilms from a planktonic culture. It was hypothesized that inhibition of RelA would limit aggregation of E. coli C."}}, "note": "“Also recorded” adds a separate entry of the source."}
{"smiles": "O=C(O)Cn1cc(C[C@H]2NC(=O)NC2=O)nn1", "note": "[HEJ14, (R)-2-(4-((2,5-dioxoimidazolidin-4-yl)methyl)-1H-1,2,3-triazol-1-yl)acetic acid]", "values": [{"measurement": "increase in killing by the combo treatment", "setting": "[1]; HEJ14 in combination with kanamycin vs kanamycin alone, planktonic and biofilm cells of WT, ΔRelA and ΔRelA/ΔSpot H. influenzae", "value": "2-3 log"}, {"measurement": "planktonic and biofilm H. influenzae growth", "setting": "[1]; even in ΔRelA strains", "value": "able to inhibit planktonic and biofilm H. influenzae growth"}, {"measurement": "pyocyanin toxin production", "setting": "[2]", "value": "decreased pyocyanin production"}, {"measurement": "P. aeruginosa virulence in the wax worm model", "setting": "[3]", "value": "significantly reduced P. aeruginosa virulence"}, {"measurement": "larvae survived", "setting": "[4]", "value": 95, "unit": "%"}, {"measurement": "bacterial growth (OD600)", "setting": "[5]", "value": "enhanced bacterial growth during the stationary phase"}, {"measurement": "agr expression (GFP signal normalized to OD600)", "setting": "[6]", "value": "dose-dependent decrease in agr expression"}, {"measurement": "hemolytic effect of culture supernatants on blood agar plates", "setting": "[7]", "value": "reduced hemolytic effect"}, {"measurement": "bioluminescence (in vivo bacterial burden)", "setting": "[8]", "value": "significantly decreased"}, {"measurement": "lesion size", "setting": "[8]", "value": "significantly decreased"}, {"measurement": "E. coli C aggregation", "setting": "[9]", "value": "completely absent; also recorded: reduced the amount of E. coli C aggregation"}]}
